According to patent US20130244879A1, “USE OF LIPO-CHITOOLIGOSACCHARIDES TO INITIATE EARLY FLOWERING AND FRUIT DEVELOPMENT IN PLANTS AND RELATED METHODS AND COMPOSITIONS” (NOVOZYMES BIOLOGICALS HOLDING A/S, priority 2003, published 2013):

Tests used:
[1] = tested on: pepper (cv. Camelot); test: Experiment 7: foliar application of LCO on pepper; type: in vivo
Description: 13 pepper seedlings (cv. Camelot, 6-leaf stage) were transplanted in 2 rows per plot (3.5×2.5M^2). The rows were covered with 65 cm width black plastic mulch one week before transplanting. Fertilizer (10-52-10) solution of 250 ppm was applied into the planting hole through the mulch when transplanting (approx. 250 ml per plant). The drip irrigation system was set to twice a week and 4 hours each time, depending on the soil moisture. Plants were sprayed with LCO 14 days after transplanting (5 ml/plant) and 27 days after transplanting (50 ml/plant).

[2] = tested on: Marigold; test: Experiment 5: foliar application of LCO to bedding plants (Marigold); type: in vivo
From the text: This is a growth room study. Seeds of garden plant species were selected on the basis of seed-purchase popularity (Norseco, Montreal), grown in trays of Pro-Mix (NB. trademarked name) Seeding Medium, and at some size were transplanted into trays of 36 and 32 wells containing the same medium. Growth proceeded under lights in the growth room. Some 2 weeks before expected flowering, 16 young plants were sprayed with each of various levels of LCO leaving control plants untreated. The results are presented in Table 5A on bud formation and where possible opened flowers.

[3] = tested on: Arabidopsis thaliana; test: Experiments 3 and 4: effect of LCO on flowering in Arabidopsis thaliana; type: in vivo; conditions: vs surfactant treated plants
Description: Two experiments were performed to investigate effect of LCO on plant's flowering using experimental model plant Arabidopsis thaliana. Plants were treated with various a range of LCO concentrations. […] The LCO treated plants reached over 80% of plants with open flowers 4 days earlier than control, surfactant treated plants. LCO induced faster and more uniform flowering.

[4] = tested on: Tomato; test: Experiment 6: foliar application of LCO at variable growth stages, field tomato; type: in vivo; set-up: Fruit # % vs. control / % of weight vs. control: concentration or dose not given beside the values
From the text: Tomato seedlings (6-leaf stage) were transplanted in farmland. The plants were watered on the day that they were transplanted and whenever the soil was very dry during the season. Fertilizer (20-20-20) was applied at 250 kg/ha to the tomato field before transplantation. All tomato plants were supported by sticks when they were heavily loaded with fruit. Fruit yield (in the table) was finally cumulated at the end of the season.

[5] = tested on: Cobra tomatoes; test: Trial 2: LCO dose and timing on greenhouse tomato (Cobra); type: in vivo
Description: The Cobra variety was used to re-examine optimal doses of LCO. The concentrations tested were 50 ng and 75 ng LCO per plant, applied once (2 weeks after transplanting) and twice (4 weeks after transplanting). The sample number was increased to 20 plants.

[6] = tested on: Marigolds; test: Experiment 12: LCO application on marigolds; type: in vivo, Marigold; conditions: best treatments
Description: Marigolds were planted in 32-cell flat and LCO was applied foliarly to plants 4 weeks after sowing (4 flats/treatment, 1 ml/plant applied containing various levels of LCO). Data collection started from the first flower appearing.

[7] = 50 ml/16 plants of 3 × 10^−8M LCO
[8] = LCO applied 10 + 20 + 30 + 40 + 50 DATP
[9] = LCO applied 10 + 20 + 30 + 40 DATP

Lipo-chitooligosaccharides [LCO]
First 4 wk yield, Fruit/plant ([1]; 14 ng/plant): 5.79ab Fruit/plant | First 4 wk yield, gram/plant ([1]; 14 ng/plant): 784.91ab gram/plant | First 4 wk yield, Fruit/plant ([1]; 50 ng/plant): 5.83ab Fruit/plant | First 4 wk yield, gram/plant ([1]; 50 ng/plant): 833.79ab gram/plant | First 4 wk yield, Fruit/plant ([1]; 75 ng/plant): 5.77ab Fruit/plant | First 4 wk yield, gram/plant ([1]; 75 ng/plant): 835.26ab gram/plant | First 4 wk yield, Fruit/plant ([1]; 100 ng/plant): 4.87b Fruit/plant | First 4 wk yield, gram/plant ([1]; 100 ng/plant): 694.48b gram/plant | First 4 wk yield, Fruit/plant ([1]; 141 ng/plant): 6.48a Fruit/plant | First 4 wk yield, gram/plant ([1]; 141 ng/plant): 934.83a gram/plant | First 4 wk yield, Fruit/plant ([1]; 282 ng/plant): 5.02ab Fruit/plant | First 4 wk yield, gram/plant ([1]; 282 ng/plant): 702.87b gram/plant | best dose ([1]; 5 ml of 2×10^−8M): 141 ng/plant | increase of fruit number in the early stages ([1]; foliar application): approximately 1 fruit per plant | plants with 4 flower buds per plant ([2]; 50 ng treatment): 2 | Total Number of Marigold buds ([2]; 20 ml/16 plants of 10^−7M LCO): 26 | Total Number of Marigold flower ([2]; 20 ml/16 plants of 10^−7M LCO): 0 | Total Number of Marigold buds ([2]; 20 ml/16 plants of 10^−8M LCO): 25 | Total Number of Marigold flower ([2]; 20 ml/16 plants of 10^−8M LCO): 2 | Total Number of Marigold buds ([2]; 20 ml/16 plants of 10^−9M LCO): 24 | Total Number of Marigold flower ([2]; 20 ml/16 plants of 10^−9M LCO): 1 | Total Number of Marigold buds [2, 7]: 34 | Total Number of Marigold flower [2, 7]: 3 | reached over 80% of plants with open flowers earlier than control [3]: 4 days | % of weight vs. control [4, 8]: 27.8% | Average Weight (g/fruit) [4, 8]: 126.8 g/fruit | Fruit # % vs. control [4, 8]: 38.41% | Fruit on 24 plants [4, 8]: 1373a | Weight (kg) per 24 plants [4, 8]: 174.07a kg | % of weight vs. control [4, 9]: 12.0% | Average Weight (g/fruit) [4, 9]: 128.0 g/fruit | Fruit # % vs. control [4, 9]: 20.06% | Fruit on 24 plants [4, 9]: 1191abc | Weight (kg) per 24 plants [4, 9]: 152.50ab kg | % of weight vs. control ([4]; LCO applied 10 + 20 + 30 DATP): 18.9% | Average Weight (g/fruit) ([4]; LCO applied 10 + 20 + 30 DATP): 126.3 g/fruit | Fruit # % vs. control ([4]; LCO applied 10 + 20 + 30 DATP): 29.23% | Fruit on 24 plants ([4]; LCO applied 10 + 20 + 30 DATP): 1282ab | Weight (kg) per 24 plants ([4]; LCO applied 10 + 20 + 30 DATP): 161.89ab kg | % of weight vs. control ([4]; LCO applied 10 + 20 DATP): 12.7% | Average Weight (g/fruit) ([4]; LCO applied 10 + 20 DATP): 136.4 g/fruit | Fruit # % vs. control ([4]; LCO applied 10 + 20 DATP): 13.41% | Fruit on 24 plants ([4]; LCO applied 10 + 20 DATP): 1125bc | Weight (kg) per 24 plants ([4]; LCO applied 10 + 20 DATP): 153.43ab kg | % of weight vs. control ([4]; LCO applied 10 DATP (7/4)): 10.8% | Average Weight (g/fruit) ([4]; LCO applied 10 DATP (7/4)): 118.2 g/fruit | Fruit # % vs. control ([4]; LCO applied 10 DATP (7/4)): 28.63% | Fruit on 24 plants ([4]; LCO applied 10 DATP (7/4)): 1276ab | Weight (kg) per 24 plants ([4]; LCO applied 10 DATP (7/4)): 150.88ab kg | % of weight vs. control ([4]; LCO applied 20 DATP (7/15)): 20.3% | Average Weight (g/fruit) ([4]; LCO applied 20 DATP (7/15)): 130.0 g/fruit | Fruit # % vs. control ([4]; LCO applied 20 DATP (7/15)): 27.02% | Fruit on 24 plants ([4]; LCO applied 20 DATP (7/15)): 1260ab | Weight (kg) per 24 plants ([4]; LCO applied 20 DATP (7/15)): 163.78ab kg | % of weight vs. control ([4]; LCO applied 30 DATP (7/25)): 17.6% | Average Weight (g/fruit) ([4]; LCO applied 30 DATP (7/25)): 133.5 g/fruit | Fruit # % vs. control ([4]; LCO applied 30 DATP (7/25)): 20.87% | Fruit on 24 plants ([4]; LCO applied 30 DATP (7/25)): 1199abc | Weight (kg) per 24 plants ([4]; LCO applied 30 DATP (7/25)): 160.11ab kg | % of weight vs. control ([4]; LCO applied 40 DATP (8/8)): 14.5% | Average Weight (g/fruit) ([4]; LCO applied 40 DATP (8/8)): 118.3 g/fruit | Fruit # % vs. control ([4]; LCO applied 40 DATP (8/8)): 32.86% | Fruit on 24 plants ([4]; LCO applied 40 DATP (8/8)): 1318ab | Weight (kg) per 24 plants ([4]; LCO applied 40 DATP (8/8)): 155.89ab kg | % of weight vs. control ([4]; LCO applied 50 DATP (8/18)): 13.6% | Average Weight (g/fruit) ([4]; LCO applied 50 DATP (8/18)): 138.7 g/fruit | Fruit # % vs. control ([4]; LCO applied 50 DATP (8/18)): 12.40% | Fruit on 24 plants ([4]; LCO applied 50 DATP (8/18)): 1115bc | Weight (kg) per 24 plants ([4]; LCO applied 50 DATP (8/18)): 154.62ab kg | increased fruit number compared to untreated control ([4]; best of 9 treatments): up to 38.4% | increased total fruit weight compared to untreated control ([4]; best of 9 treatments): up to 27.8% | advance in flowering (attaining same flower number as control) ([5]; 50 ng treatment): ~3 days | advance of equivalent fruit numbers over control ([5]; 50 ng/plant application twice): 2 weeks | Flower Number/Plant ([5]; LCO 50 ng once, April 4): 32.45 | Fruit Number/Plant ([5]; LCO 50 ng once, April 4): 1.3 b | Flower Number/Plant ([5]; LCO 50 ng once, Feb. 28): 0.0 b | Flower Number/Plant ([5]; LCO 50 ng once, Mar. 7): 2.5 ab | Flower Number/Plant ([5]; LCO 50 ng once, Mar. 14): 7.4 ab | Fruit Number/Plant ([5]; LCO 50 ng once, Mar. 14): 0.05 b | Flower Number/Plant ([5]; LCO 50 ng once, Mar. 21): 14.55 | Fruit Number/Plant ([5]; LCO 50 ng once, Mar. 21): 0.25 | Flower Number/Plant ([5]; LCO 50 ng once, Mar. 28): 23.95 | Fruit Number/Plant ([5]; LCO 50 ng once, Mar. 28): 0.525 c | Flower Number/Plant ([5]; LCO 50 ng twice, April 4): 32.2 | Fruit Number/Plant ([5]; LCO 50 ng twice, April 4): 2.5 a | Flower Number/Plant ([5]; LCO 50 ng twice, Feb. 28): 0.2 a | Flower Number/Plant ([5]; LCO 50 ng twice, Mar. 7): 3.2 a | Flower Number/Plant ([5]; LCO 50 ng twice, Mar. 14): 8.4 a | Fruit Number/Plant ([5]; LCO 50 ng twice, Mar. 14): 0.75 a | Flower Number/Plant ([5]; LCO 50 ng twice, Mar. 21): 16.0 | Fruit Number/Plant ([5]; LCO 50 ng twice, Mar. 21): 1.8 a | Flower Number/Plant ([5]; LCO 50 ng twice, Mar. 28): 25.15 | Fruit Number/Plant ([5]; LCO 50 ng twice, Mar. 28): 2.025 a | Flower Number/Plant ([5]; LCO 75 ng once, April 4): 28.0 | Fruit Number/Plant ([5]; LCO 75 ng once, April 4): 1.45 b | Flower Number/Plant ([5]; LCO 75 ng once, Feb. 28): 0.0 b | Flower Number/Plant ([5]; LCO 75 ng once, Mar. 7): 2.85 ab | Flower Number/Plant ([5]; LCO 75 ng once, Mar. 14): 7.35 ab | Fruit Number/Plant ([5]; LCO 75 ng once, Mar. 14): 0.45 ab | Flower Number/Plant ([5]; LCO 75 ng once, Mar. 21): 14.2 | Fruit Number/Plant ([5]; LCO 75 ng once, Mar. 21): 0.9 bc | Flower Number/Plant ([5]; LCO 75 ng once, Mar. 28): 21.4 | Fruit Number/Plant ([5]; LCO 75 ng once, Mar. 28): 1.15 bc | Flower Number/Plant ([5]; LCO 75 ng twice, April 4): 31.0 | Fruit Number/Plant ([5]; LCO 75 ng twice, April 4): 1.9 ab | Flower Number/Plant ([5]; LCO 75 ng twice, Feb. 28): 0.0 b | Flower Number/Plant ([5]; LCO 75 ng twice, Mar. 7): 3.25 a | Flower Number/Plant ([5]; LCO 75 ng twice, Mar. 14): 7.35 ab | Fruit Number/Plant ([5]; LCO 75 ng twice, Mar. 14): 0.6 ab | Flower Number/Plant ([5]; LCO 75 ng twice, Mar. 21): 15.4 | Fruit Number/Plant ([5]; LCO 75 ng twice, Mar. 21): 1.0 b | Flower Number/Plant ([5]; LCO 75 ng twice, Mar. 28): 23.35 | Fruit Number/Plant ([5]; LCO 75 ng twice, Mar. 28): 1.325 ab | advanced flowering [6]: 2 days | increase in number of flowers at 25 days [6]: 8%
